Data published in patent publication US9303017B2, “2,5-disubstituted-pyridyl nicotinic ligands, and methods of use thereof” (Georgetown University, priority 2011, dated 2016).

Assays:
[1] = molecular target: α4β2 nAChR (Rattus norvegicus (Rat), UniProt P09483+P12390); assay: biochemical; format: binding
Experimental: (§1) In Vitro Binding Affinities for nAChR Subtypes. […] To determine selectivities of these compounds in binding assays among the three predominant nAChR subtypes, α3β4, α4β2 and α7, the ratios of Ki values (α3β4/α4β2 and α7/α4β2) were determined.
(§2) Cell Lines and Cell Culture. The cell lines expressing defined rat nAChR subtypes were established previously by stably transfecting HEK 293 cells with rat nAChR subunit genes. The cell line expressing human α4β2 nAChRs, YXα4β2H1, was established recently. These cell lines were maintained in minimum essential medium (MEM) supplemented with 10% fetal bovine serum, 100 units/mL penicillin G, […] and selective antibiotics at 37° C. with 5% CO2 in a humidified incubator. Fetal bovine serum was provided by Gemini Bio-Products (Woodland, Calif.). Tissue culture medium and antibiotics were obtained from Invitrogen Corporation (Carlsbad, Calif.), unless otherwise stated.
(§3) Briefly, cultured cells at >80% confluence were removed from their flasks (80 cm^2) with a disposable cell scraper and placed in 10 mL of 50 mM Tris.HCl buffer (pH 7.4, 4° C.). The cell suspension was centrifuged at 10,000×g for 5 min and the pellet was collected. The cell pellet was then homogenized in 10 mL buffer with a polytron homogenizer and centrifuged at 36,000 g for 10 min at 4° C. The membrane pellet was resuspended in fresh buffer, and aliquots of the membrane preparation were used for binding assays. […] Bound and free ligands were separated by vacuum filtration through Whatman GF/C filters treated with 0.5% polyethylenimine. The filter-retained radioactivity was measured by liquid scintillation counting. Specific binding was defined as the difference between total binding and nonspecific binding. Data from competition binding assays were analyzed using Prism 5 (GraphPad Software, San Diego, Calif.).
(§4) Pharmacological Properties. We measured the in vitro binding affinities of the ligands for defined receptor subtypes (α2β2, α2β4, α3β2, α3β4, α4β2, α4β4, α6β2, α6β4, and α7) expressed in stably transfected cell lines. […] Rat forebrain homogenates were included to allow comparison between the heterologous and native α4β2 and α7 nAChRs. See Table 1 for binding affinity values (Ki) of the ligands at the three major nAChR subtypes (α3β4. α4β2 and α7).

[2] = tested on: alcohol preferring rats (P rats); assay: Alcohol intake in alcohol preferring rats; format: in vivo, rat
Experimental: In Vivo Effects on Alcohol Intake in Rats. In our initial behavioral studies in an animal model, effects of compound (S)-15 (Scheme 1, YL-1-127) on alcohol self-administration in alcohol preferring rats (P rats) were assessed. Three doses of (S)-15 were tested: 0.33, 1 and 3 mg/kg (s.c.).
General Procedures for Effect on Alcohol Intake in Rats. Adult male rats obtained from a colony of selectively-bred alcohol preferring rats (P rats) maintained at Indiana University School of Medicine. Rats were housed in cages that were fitted with two 100 mL Richter tubes for the recording of water and alcohol intake. Animals were kept under a constant room temperature of 22±1° C. and 12:12 light-dark cycle (7:00 a.m.-7:00 p.m. dark). Animals were fed 5001 Rodent Chow (Lab Diet, Brentwood, Mo., USA). All procedures were approved by the IACUC at Duke University Medical Center.
After a week of handling and habituation, rats were given free access to water in a graduated Richter tube for 1 day. Next, they were given free access only to a solution of 10% (v/v) alcohol for 3 consecutive days. Thereafter, rats were given free access to water and a solution of alcohol throughout the study. Water and alcohol intake were indexed by graduated Richter drinking tubes.
An acute study was conducted to determine a dose-response for compound (S)-15 (YL-1-127). After the establishment of a stable baseline for alcohol and water intake rats were injected subcutaneously with 0.33, 1 and 3 mg/kg of YL-1-127 or the same volume of the vehicle ([…]). Alcohol and water intake were measured at, 2, 4, 6 and 24 hr after the drug administration. The preference for alcohol solution, [(alcohol volume)/(alcohol+water volume)×100], was calculated for the same time points as alcohol and water intake. All animals (n=18) received all treatments following a crossover design with random assignment. The interval between injections was at least 3 days.
Solution of 10% (v/v) alcohol was prepared twice weekly from a solution of […] mixed with tap water. Solutions of YL-1-127 was prepared weekly in 100 mM HCl solution and isotonic saline and was injected subcutaneously in a volume of 1 mL/kg.
The data were assessed by the analysis of variance with a between subjects factor of strain and a repeated measures factor of YL-1-127 dose. Significance was determined at p

[3] = tested on: ferrets; assay: Emesis studies in ferrets; format: in vivo, ferret (Mustela putorius furo); details: 1-30 mg/kg s.c., 1 hr observation
Experimental: Emetic Effects of Compound (S)-15 (YL-1-127) in Ferrets. Effects of (S)-15 in causing nausea and emesis were assessed in a ferret model. For comparison, varenicline was also tested. […] In general, all animals remained alert and active with periods of inactivity that mirrored their baseline behavior within the 1 hr observation period.
In one animal, this behavior was accompanied by oral stereotypy (licking), whereas in two animals it was interspersed by episodes of backward walking. On the average, these behaviors manifested around ˜2.20 min. […] Occasionally, when animals tried to ambulate they would immediately cease their movement after each attempt. This would be followed by a momentary increase in breathing, giving the impression that the animal was in distress.
General Procedures for Emesis Studies in Ferrets. Studies were undertaken in male ferrets (Mustela putorius furo) weighing 0.9-1.5 kg (Marshall Farms, N.Y.). They were housed in controlled conditions of room temperature (22° C.) and light (12:12 h light-dark cycle) with free access to food and water. Prior to each experiment, food was withheld overnight, whereas water was provided ad libitum.
Emetic testing consisted of placing animals individually in a polycarbonate enclosure. Following a 30 min acclimation period, each animal randomly received a subcutaneus injection of varencline or compound (S)-15 (YL-1-127) in the subscapular region. A 60 min observation and video recording followed the drug administration. […] All drugs were dissolved in sterile saline.
Video analysis of the incidence of emesis, stereotypical behaviors (such as licking, mouth-clawing, backward walking, gagging, and burying of the head in cage) and GI side effects (diarrhea) was done off-line. Stereotypical behaviors are thought to be reflective of a subjective sensation of nausea. The emetic index of a drug was calculated as the […] of animals displaying emesis (one or more times in 60 min) divided by the total number of animals tested. An emetic episode was defined as the forceful oral expulsion of liquid or solid upper gastrointestinal contents that is temporally separated from another by at least 30 s.
The Nausea Index for the stereotypical behaviors was derived from the mean±SEM number of nausea behaviors observed among all animals in a given treatment group. Significance was determined at p<0.05.

[4] = molecular target: α7 nAChR (Rattus norvegicus (Rat), UniProt Q05941); format: binding; details: Table 1; mean of 3 to 5 measurements
Experimental: as §1, §2, §3, §4

Sequence of α4β2 nAChR (P09483 31-630 limits assumed): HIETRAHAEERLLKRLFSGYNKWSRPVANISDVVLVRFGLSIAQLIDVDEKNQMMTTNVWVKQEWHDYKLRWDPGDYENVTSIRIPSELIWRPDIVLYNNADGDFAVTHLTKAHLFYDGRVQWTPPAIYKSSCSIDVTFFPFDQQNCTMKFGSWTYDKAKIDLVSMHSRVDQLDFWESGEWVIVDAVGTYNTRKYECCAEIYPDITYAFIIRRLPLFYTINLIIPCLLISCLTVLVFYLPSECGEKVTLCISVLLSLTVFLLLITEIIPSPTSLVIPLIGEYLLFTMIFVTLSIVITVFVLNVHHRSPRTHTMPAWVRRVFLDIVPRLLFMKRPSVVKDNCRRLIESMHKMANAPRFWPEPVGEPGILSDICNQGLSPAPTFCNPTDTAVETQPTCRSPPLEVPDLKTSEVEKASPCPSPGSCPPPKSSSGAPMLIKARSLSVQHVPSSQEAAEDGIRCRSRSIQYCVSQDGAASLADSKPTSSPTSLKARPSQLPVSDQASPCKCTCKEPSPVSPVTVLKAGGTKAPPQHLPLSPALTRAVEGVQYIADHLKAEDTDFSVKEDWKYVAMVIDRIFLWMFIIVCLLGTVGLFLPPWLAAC
Sequence of α4β2 nAChR (P12390 25-500 limits assumed): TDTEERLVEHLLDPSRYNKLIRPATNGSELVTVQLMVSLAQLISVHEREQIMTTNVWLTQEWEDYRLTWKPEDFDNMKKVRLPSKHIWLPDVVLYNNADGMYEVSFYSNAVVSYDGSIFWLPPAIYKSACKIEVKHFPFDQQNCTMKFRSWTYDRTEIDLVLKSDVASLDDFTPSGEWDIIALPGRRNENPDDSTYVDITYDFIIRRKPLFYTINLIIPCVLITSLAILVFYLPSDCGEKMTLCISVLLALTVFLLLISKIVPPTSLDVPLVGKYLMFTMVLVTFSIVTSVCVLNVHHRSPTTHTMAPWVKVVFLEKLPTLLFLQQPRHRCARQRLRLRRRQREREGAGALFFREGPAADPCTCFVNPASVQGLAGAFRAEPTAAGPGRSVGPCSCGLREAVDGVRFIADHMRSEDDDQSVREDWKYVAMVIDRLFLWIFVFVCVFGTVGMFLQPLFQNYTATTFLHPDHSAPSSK
Sequence of α7 nAChR (Q05941 23-502 limits assumed): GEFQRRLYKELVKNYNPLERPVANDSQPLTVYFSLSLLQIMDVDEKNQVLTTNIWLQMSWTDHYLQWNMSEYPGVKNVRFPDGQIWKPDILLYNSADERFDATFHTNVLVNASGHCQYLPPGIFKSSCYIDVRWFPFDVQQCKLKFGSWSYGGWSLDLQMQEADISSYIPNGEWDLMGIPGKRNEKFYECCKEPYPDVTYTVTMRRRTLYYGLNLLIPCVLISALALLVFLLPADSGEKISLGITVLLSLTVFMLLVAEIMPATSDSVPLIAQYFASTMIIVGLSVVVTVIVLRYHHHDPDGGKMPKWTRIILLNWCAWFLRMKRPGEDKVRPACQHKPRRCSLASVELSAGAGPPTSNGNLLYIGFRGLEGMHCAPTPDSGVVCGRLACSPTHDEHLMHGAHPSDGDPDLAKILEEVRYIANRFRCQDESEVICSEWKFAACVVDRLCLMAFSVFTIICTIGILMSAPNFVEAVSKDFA

CCCCC#Cc1cnc(C)c(OC[C@@H]2CCN2)c1 [(S)-15, (S)-3-(azetidin-2-ylmethoxy)-5-(hex-1-ynyl)-2-methylpyridine]
Ki ([1]; Table 3 (Example 4), read-out: Ki α4β2): 0.012 µM | Ki Ratio α3β4/α4β2 ([1]; selectivity for α4β2 over α3β4): 19,000 | Ki Ratio α7/α4β2 ([1]; selectivity for α4β2 over α7): 7,800 | alcohol intake ([2]; 1 mg/kg s.c., 24 h, p<0.05): reduced alcohol intake significantly | alcohol intake ([2]; 3 mg/kg s.c., 6 h, p<0.05): significant effects | alcohol intake ([2]; 3 mg/kg s.c., 24 h, p<0.0005): significant effects | alcohol intake ([2]; 0.33, 1 and 3 mg/kg s.c., compared with control vehicle): significantly reduced alcohol intake in a dose dependent manner | emetic episodes or stereotypical behaviors indicative of nausea [3]: did not elicit any emetic episodes or stereotypical behaviors | Ki [4]: 93 µM
